Article PMC10778198, “First-in-Human Dose-Escalation Study of the Novel Oral Depsipeptide Class I-Targeting HDAC Inhibitor Bocodepsin (OKI-179) in Patients with Advanced Solid Tumors” (Cancers, 2023)
Marks after values point to notes of the source that are not given here.

Tested on: patients with advanced solid tumors
Experiment: phase I dose escalation: safety, DLT, MTD, RP2D (CTCAE v. 5)
Type: in vivo
Conditions: for maximum tolerated dose (MTD): oral once daily
Description: Subsequent dosing cohorts were enrolled using a standard 3 + 3 design.
If any patient in any cohort of three patients developed a DLT during cycle 1, an additional three patients were recruited to expand the cohort to up to six evaluable patients. If two or more patients in any expanded cohort developed a DLT, this dose was considered non-tolerated, and dose escalation was discontinued. The MTD was defined as the highest dose level for which no more than one of six patients experienced a DLT.
Patients were continuously evaluated for adverse events throughout the study using the Common Terminology Criteria of Adverse Events (CTCAE v. 5). The patients underwent a clinical history and physical examination, an ECOG PS, a complete blood count (CBCs), chemistry, coagulation studies, urinalysis, a serum pregnancy test (as applicable), a triplicate ECG, an ophthalmology examination, and baseline tumor assessment at screening. During cycle 1, weekly history and physical examination, CBC, chemistry, coagulation parameters, urinalysis, and triplicate ECGs were performed; in subsequent cycles, weekly labs were limited to a CBC. Repeat ophthalmology examinations were performed at cycle 3, day 1, and at the end of treatment. Repeat tumor assessment was performed every 2 cycles (6 weeks) in accordance with RECIST 1.1.

[1] = All Continuous Patients (N=8), G3
[2] = All Continuous Patients (N=8), G4

CC(C)[C@H](N)C(=O)SCC/C=C/[C@@H]1CC(=O)NCc2nc(cs2)C(=O)NC(C)(C)C(=O)N[C@@H](C(C)C)C(=O)O1 [OKI-179, Bocodepsin]
TEAE: Headache [1]: 0 N (%)
TEAE: Nausea [1]: 0 N (%)
TEAE: Pain [1]: 0 N (%)
TEAE: Platelet count decreased [1]: 0 N (%)
TEAE: Abdominal pain [2]: 0 N (%)
TEAE: Anemia [2]: 0 N (%)
TEAE: Constipation [2]: 0 N (%)
TEAE: Decreased appetite [2]: 0 N (%)
TEAE: Diarrhea [2]: 0 N (%)
TEAE: Dyspepsia [2]: 0 N (%)
TEAE: ECG QT prolonged [2]: 0 N (%)
TEAE: Fatigue [2]: 0 N (%)
TEAE: Headache [2]: 0 N (%)
TEAE: Nausea [2]: 0 N (%)
TEAE: Pain [2]: 0 N (%)
TEAE: Platelet count decreased [2]: 2 (25) N (%)
DLTs (Cohort 1, 30 mg, Schedule 1 (4:3), 1 patient): 0 patients
DLTs (Cohort 2, 60 mg, Schedule 1 (4:3), 2 patients): 0 patients
DLTs (Cohort 3, 90 mg, Schedule 1 (4:3), 1 patient): 0 patients
DLTs (Cohort 4, 120 mg, Schedule 1 (4:3), 1 patient): 0 patients
DLTs (Cohort 5, 150 mg, Schedule 1 (4:3), 1 patient): 0 patients
DLTs (Cohort 6, 180 mg, Schedule 1 (4:3), 1 patient): 0 patients
DLTs (Cohort 7, 210 mg, Schedule 1 (4:3), 1 patient): 0 patients
DLTs (Cohort 8, 270 mg, Schedule 1 (4:3), 3 patients): 0 patients
DLTs (Cohort 9, 350 mg, Schedule 1 (4:3), 3 patients): 0 patients
DLTs (Cohort 11, 300 mg, Schedule 2 (continuous), 2 patients, grade 2 and grade 4 thrombocytopenia): 2 * patients
DLTs (Cohort 12, 200 mg, Schedule 2 (continuous), 6 patients): 0 patients
TEAE: Anemia (all patients (n = 34)): 35.3%
TEAE: Fatigue (all patients (n = 34)): 47.1%
TEAE: Nausea (all patients (n = 34)): 70.6%
TEAE: anorexia (all patients (n = 34)): 32.4%
TEAE: decreased platelet count (thrombocytopenia) (all patients (n = 34)): 41.2%
grade > 3 treatment-related TEAE: anemia (all patients (n = 34)): 11.8%
grade > 3 treatment-related TEAE: anorexia (all patients (n = 34)): 5.9%
grade > 3 treatment-related TEAE: decreased platelet count (all patients (n = 34)): 5.9%
grade > 3 treatment-related TEAE: prolonged QT interval on ECG (all patients (n = 34)): 5.9%
number of grade > 3 treatment-related TEAEs (all patients (n = 34)): 15
patients with Grade > 3 TEAEs (all patients (n = 34)): 18 (52.9%) patients (%)
patients with a treatment-related TEAE (all patients (n = 34)): 33 (97.1%) patients (%)
patients with grade > 3 treatment-related TEAEs (all patients (n = 34)): nine
patients with treatment-related TEAEs leading to dose holding or reduction (all patients (n = 34)): Eleven
patients with serious adverse events (SAEs) (all patients (n = 34), one treatment-related (grade 3 nausea)): 14 (41.2%) patients (%)
TEAE: Constipation (continuous dosing cohort): 75%
TEAE: Diarrhea (continuous dosing cohort): 38%
TEAE: Fatigue (continuous dosing cohort): 50%
TEAE: Headache (continuous dosing cohort): 38%
TEAE: Nausea (continuous dosing cohort): 75%
TEAE: platelet count decrease (continuous dosing cohort): 50%
grade 4 thrombocytopenia events (continuous dosing cohort, two events, in the 300 mg cohort): 25%
TEAE: Abdominal pain (continuous, 200 mg (N=6), G1): 1 (17) N (%)
TEAE: Anemia (continuous, 200 mg (N=6), G1): 0 N (%)
TEAE: Constipation (continuous, 200 mg (N=6), G1): 2 (33) N (%)
TEAE: Decreased appetite (continuous, 200 mg (N=6), G1): 1 (17) N (%)
TEAE: Diarrhea (continuous, 200 mg (N=6), G1): 2 (33) N (%)
TEAE: Dyspepsia (continuous, 200 mg (N=6), G1): 1 (17) N (%)
TEAE: ECG QT prolonged (continuous, 200 mg (N=6), G1): 1 (17) N (%)
TEAE: Fatigue (continuous, 200 mg (N=6), G1): 1 (17) N (%)
TEAE: Headache (continuous, 200 mg (N=6), G1): 2 (33) N (%)
TEAE: Nausea (continuous, 200 mg (N=6), G1): 2 (33) N (%)
TEAE: Pain (continuous, 200 mg (N=6), G1): 1 (17) N (%)
TEAE: Platelet count decreased (continuous, 200 mg (N=6), G1): 1 (17) N (%)
TEAE: Abdominal pain (continuous, 200 mg (N=6), G2): 1 (17) N (%)
TEAE: Anemia (continuous, 200 mg (N=6), G2): 1 (17) N (%)
TEAE: Constipation (continuous, 200 mg (N=6), G2): 3 (50) N (%)
TEAE: Decreased appetite (continuous, 200 mg (N=6), G2): 0 N (%)
TEAE: Diarrhea (continuous, 200 mg (N=6), G2): 0 N (%)
TEAE: Dyspepsia (continuous, 200 mg (N=6), G2): 1 (17) N (%)
TEAE: ECG QT prolonged (continuous, 200 mg (N=6), G2): 1 (17) N (%)
TEAE: Fatigue (continuous, 200 mg (N=6), G2): 2 (33) N (%)
TEAE: Headache (continuous, 200 mg (N=6), G2): 0 N (%)
TEAE: Nausea (continuous, 200 mg (N=6), G2): 2 (33) N (%)
TEAE: Pain (continuous, 200 mg (N=6), G2): 1 (17) N (%)
TEAE: Platelet count decreased (continuous, 200 mg (N=6), G2): 1 (17) N (%)
TEAE: Abdominal pain (continuous, 200 mg (N=6), G3): 0 N (%)
TEAE: Anemia (continuous, 200 mg (N=6), G3): 0 N (%)
TEAE: Constipation (continuous, 200 mg (N=6), G3): 0 N (%)
TEAE: Decreased appetite (continuous, 200 mg (N=6), G3): 0 N (%)
TEAE: Diarrhea (continuous, 200 mg (N=6), G3): 0 N (%)
TEAE: Dyspepsia (continuous, 200 mg (N=6), G3): 0 N (%)
TEAE: ECG QT prolonged (continuous, 200 mg (N=6), G3): 0 N (%)
TEAE: Fatigue (continuous, 200 mg (N=6), G3): 0 N (%)
TEAE: Headache (continuous, 200 mg (N=6), G3): 0 N (%)
TEAE: Nausea (continuous, 200 mg (N=6), G3): 0 N (%)
TEAE: Pain (continuous, 200 mg (N=6), G3): 0 N (%)
TEAE: Platelet count decreased (continuous, 200 mg (N=6), G3): 0 N (%)
TEAE: Abdominal pain (continuous, 200 mg (N=6), G4): 0 N (%)
TEAE: Anemia (continuous, 200 mg (N=6), G4): 0 N (%)
TEAE: Constipation (continuous, 200 mg (N=6), G4): 0 N (%)
TEAE: Decreased appetite (continuous, 200 mg (N=6), G4): 0 N (%)
TEAE: Diarrhea (continuous, 200 mg (N=6), G4): 0 N (%)
TEAE: Dyspepsia (continuous, 200 mg (N=6), G4): 0 N (%)
TEAE: ECG QT prolonged (continuous, 200 mg (N=6), G4): 0 N (%)
TEAE: Fatigue (continuous, 200 mg (N=6), G4): 0 N (%)
TEAE: Headache (continuous, 200 mg (N=6), G4): 0 N (%)
TEAE: Nausea (continuous, 200 mg (N=6), G4): 0 N (%)
TEAE: Pain (continuous, 200 mg (N=6), G4): 0 N (%)
TEAE: Platelet count decreased (continuous, 200 mg (N=6), G4): 0 N (%)
TEAE: Abdominal pain (continuous, 300 mg (N=2), G1): 0 N (%)
TEAE: Anemia (continuous, 300 mg (N=2), G1): 0 N (%)
TEAE: Constipation (continuous, 300 mg (N=2), G1): 1 (50) N (%)
TEAE: Decreased appetite (continuous, 300 mg (N=2), G1): 0 N (%)
TEAE: Diarrhea (continuous, 300 mg (N=2), G1): 1 (50) N (%)
TEAE: Dyspepsia (continuous, 300 mg (N=2), G1): 0 N (%)
TEAE: ECG QT prolonged (continuous, 300 mg (N=2), G1): 0 N (%)
TEAE: Fatigue (continuous, 300 mg (N=2), G1): 0 N (%)
TEAE: Headache (continuous, 300 mg (N=2), G1): 1 (50) N (%)
TEAE: Nausea (continuous, 300 mg (N=2), G1): 2 (100) N (%)
TEAE: Pain (continuous, 300 mg (N=2), G1): 0 N (%)
TEAE: Platelet count decreased (continuous, 300 mg (N=2), G1): 0 N (%)
TEAE: Abdominal pain (continuous, 300 mg (N=2), G2): 0 N (%)
TEAE: Anemia (continuous, 300 mg (N=2), G2): 1 (50) N (%)
TEAE: Constipation (continuous, 300 mg (N=2), G2): 0 N (%)
TEAE: Decreased appetite (continuous, 300 mg (N=2), G2): 0 N (%)
TEAE: Diarrhea (continuous, 300 mg (N=2), G2): 0 N (%)
TEAE: Dyspepsia (continuous, 300 mg (N=2), G2): 0 N (%)
TEAE: ECG QT prolonged (continuous, 300 mg (N=2), G2): 0 N (%)
TEAE: Fatigue (continuous, 300 mg (N=2), G2): 0 N (%)
TEAE: Headache (continuous, 300 mg (N=2), G2): 0 N (%)
TEAE: Nausea (continuous, 300 mg (N=2), G2): 0 N (%)
TEAE: Pain (continuous, 300 mg (N=2), G2): 0 N (%)
TEAE: Platelet count decreased (continuous, 300 mg (N=2), G2): 0 N (%)
TEAE: Abdominal pain (continuous, 300 mg (N=2), G3): 0 N (%)
TEAE: Anemia (continuous, 300 mg (N=2), G3): 0 N (%)
TEAE: Constipation (continuous, 300 mg (N=2), G3): 0 N (%)
TEAE: Decreased appetite (continuous, 300 mg (N=2), G3): 1 (50) N (%)
TEAE: Diarrhea (continuous, 300 mg (N=2), G3): 0 N (%)
TEAE: Dyspepsia (continuous, 300 mg (N=2), G3): 0 N (%)
TEAE: ECG QT prolonged (continuous, 300 mg (N=2), G3): 0 N (%)
TEAE: Fatigue (continuous, 300 mg (N=2), G3): 1 (50) N (%)
TEAE: Headache (continuous, 300 mg (N=2), G3): 0 N (%)
TEAE: Nausea (continuous, 300 mg (N=2), G3): 0 N (%)
TEAE: Pain (continuous, 300 mg (N=2), G3): 0 N (%)
TEAE: Platelet count decreased (continuous, 300 mg (N=2), G3): 0 N (%)
TEAE: Abdominal pain (continuous, 300 mg (N=2), G4): 0 N (%)
TEAE: Anemia (continuous, 300 mg (N=2), G4): 0 N (%)
TEAE: Constipation (continuous, 300 mg (N=2), G4): 0 N (%)
TEAE: Decreased appetite (continuous, 300 mg (N=2), G4): 0 N (%)
TEAE: Diarrhea (continuous, 300 mg (N=2), G4): 0 N (%)
TEAE: Dyspepsia (continuous, 300 mg (N=2), G4): 0 N (%)
TEAE: ECG QT prolonged (continuous, 300 mg (N=2), G4): 0 N (%)
TEAE: Fatigue (continuous, 300 mg (N=2), G4): 0 N (%)
TEAE: Headache (continuous, 300 mg (N=2), G4): 0 N (%)
TEAE: Nausea (continuous, 300 mg (N=2), G4): 0 N (%)
TEAE: Pain (continuous, 300 mg (N=2), G4): 0 N (%)
TEAE: Platelet count decreased (continuous, 300 mg (N=2), G4): 2 (100) N (%)
recommended phase 2 dose (RP2D) (daily on a 4:3 schedule): 300 mg
maximum tolerated dose (MTD) (4:3 intermittent dosing): 450 mg
maximum tolerated dose (MTD) (continuous dosing): 200 mg
patients with grade 1 or 2 QT prolongation (whole study): four
patients with grade 3 QT prolongation (whole study): three
